# In the METLIN SMRT retention time set (Domingo-Almenara et al. 2019):
# Experiment: gradient 5% acetonitrile 3 min, to 50% in 2 min, to 85% in 15 min, held 3 min, 100 µL/min
# Conditions: column: Zorbax Extend-C18 2.1 x 50 mm; eluents: water / acetonitrile, 0.1% formic acid
# Summary of the method: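 Standards, all pure, were combined into mixtures of ~100 molecules and run at 100 μL/min on a Zorbax Extend-C18 column (2.1 × 50 mm, 1.8 μm) with water and acetonitrile, each containing 0.1% formic acid. A coupled quadrupole time-of-flight mass spectrometer operated in positive and negative ionization mode. Retention time values come from computationally picked adduct peaks, each inspected manually.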
row,Compound,RP-LC retention time [s]
1,Cc1ccc(NC(=O)Nc2ccc3nc(N4CCN(C)CC4)cc(C)c3c2)cc1C,614
2,CC(NC(=O)c1ccc(OC(F)(F)F)cc1)C(=O)N1CCN(c2ccccn2)CC1 (stereo not given),643
3,Cc1cc2nc(C(=O)NCC(C)C)c(=O)n(C)c2cc1C,668
4,CC(C)Cn1cc(CCNC(=O)c2cncc(Br)c2)c2cccnc21,796
5,O=C(NC(c1ccccc1)c1nnc(-c2ccccc2)o1)c1ccco1 (stereo not given),876
6,COc1ccccc1NC(=O)NCC(O)c1ccsc1 (stereo not given),684
7,O=C(Oc1ccccc1)N1CCC(CNS(=O)(=O)/C=C/c2ccccc2)CC1,912
8,O=S(=O)(Nc1ccc2c(c1)OCCO2)c1ccc2nncn2c1,660
9,Cc1ccc(-c2noc(CN3N=NC4C(=O)N(c5ccc(F)cc5)C(=O)C43)n2)cc1 (stereo not given),1020
10,CC(NS(=O)(=O)c1ccc2c(c1)CCN2C(=O)N1CCCC1)C(=O)N1CCCCC1 (stereo not given),720
11,COc1ccc(CNC(=O)c2cc3c(=O)n(C)c4ccccc4n3n2)c(OC)c1,784
12,N#CC1=C(N)Oc2c(ccc3cccnc23)C1c1ccccc1 (stereo not given),768
13,CCOC(=O)N1CCN(S(=O)(=O)c2cn(C)nc2C)CC1,644
14,COc1ccc(CC(=O)Nc2ccc3c(c2)Sc2ncccc2C(=O)N3C)cc1Cl,807
15,CCCC(=O)Nc1ccc2c(c1)CN(C(=O)CC1CCCC1)C(C(=O)N(C)C)C2 (stereo not given),716
16,COc1ccc2[nH]cc(CCNC(=O)CCc3nnc(C(=O)Nc4ccccc4)s3)c2c1,803
17,O=C(CN1C(=O)c2ccccc2C1=O)Nc1nnc(C2COc3ccccc3O2)o1 (stereo not given),714
18,COc1ccc(-c2nn3c(-c4ccc5ccccc5n4)nnc3s2)cc1,975
19,Cn1c(=O)c2c(nc3n(-c4ccc(O)cc4)c(-c4ccc(Cl)cc4)cn23)n(C)c1=O,813
20,O=C(O)Cc1sc(Nc2ccccc2)nc1-c1ccccc1,858
21,O=C(Nc1nc(-c2ccccc2)c(-c2ccccc2)s1)c1ccc(Br)s1,1460

row,Compound,RP-LC retention time [s]
1,O=C(Nc1ccc(C2(C(=O)N3CCCCCC3)CCC2)cc1)C1CC1,844
2,Cc1ccc(CNC(=O)C2(C)CCN(C(=O)Nc3ccccc3C(F)(F)F)CC2)cc1,927
3,CCN1C(=O)COc2ccc(-c3noc(Cc4ccc(OC)cc4)n3)cc21,1000
4,O=c1c2oc3ccccc3c2ncn1Cc1nc(-c2ccc(OC(F)(F)F)cc2)no1,1050
5,CN1CCN(CCNC(=O)C2CCc3sc(C(=O)N4CCCC4)cc3C2)CC1 (stereo not given),569
6,CCCCN1CCN(Cc2nc(-c3ccc(N4CCC(C)CC4)nc3)no2)CC1,644
7,Cn1cccc1CN(C(=O)CC(c1ccccc1)c1ccccc1)C1CC1,1080
8,COc1cccc(CC(=O)N2CCN3CCS(=O)(=O)N(C4CC4)C(=O)C3C2)c1 (stereo not given),747
9,COc1ccc(-c2nc3ncccn3c2Nc2ccc(C)c(C)c2)cc1,784
10,COc1ccc(-c2cn3ccn(-c4ccc(OC)cc4)c(=O)c3n2)cc1,768
11,CCCCS(=O)CC(CO)NC(=O)/C=C/c1c(C)[nH]c(=O)[nH]c1=O (stereo not given),569
12,Cc1cc2c(c(=O)n(-c3ccc(F)cc3)c(=O)n2CC(=O)Nc2ccccc2C(F)(F)F)n1C,880
13,COC[C@@H]1[C@H](C(=O)NCCC(C)C)CCC(=O)N1C,643
14,COc1ccc(-c2csc3c(=O)n(Cc4cccc(OC)c4)cnc23)cc1,1030
15,CCOc1ccc(S(=O)(=O)c2ccc(C)cc2)c2c1no[n+]2[O-],1050
16,CC(C)CCNS(=O)(=O)c1ccc(-c2cc(C(F)(F)F)on2)o1,1090
17,COCC(=O)Nc1ccc2nc(N3CCN(Cc4ccccc4OC)CC3)cc(C(=O)O)c2c1,573
18,Clc1ccc2nc(-c3ccc(N4CCOCC4)cc3)c(Nc3ccccc3)n2c1,752
19,CCn1ccc2sc(C)c(C(=O)NCc3ccc(Br)cc3)c2c1=O,911
20,CCc1ccc(/C=C2/SC(=S)NC2=O)cc1,1070

# Next, values leading:
row,RP-LC retention time [s],Compound
1,724,Cn1nc2c(c1NC(=O)c1ccc(Cl)s1)CCC2
2,784,CCOC(=O)CNC(=O)C1CCN(c2ncccc2S(=O)(=O)N2CCCCC2)CC1
3,787,Cc1ccc2c(c1)C(=O)NC1(CCN(C(=O)Cc3cccc(F)c3)CC1)N2C
4,1010,CC(C)Oc1ccc(-c2noc(-c3nn(-c4cccc(F)c4)ccc3=O)n2)cc1
5,675,CC(C)c1ccc(CNC(=O)c2cn3c(n2)CCCC3)cc1
6,693,COc1ccccc1NC(=O)C1CCN(S(=O)(=O)c2c(C)[nH]c(C)c2C(=O)N2CCCC2)CC1
7,758,CN1C(=O)C(CC(=O)Nc2ccccc2)=C2CCCCC21 (stereo not given)
8,1010,Fc1ccc(C2Cn3cnc(-c4nc(-c5cccs5)no4)c3CO2)cc1 (stereo not given)
9,964,Cc1c(Cl)cccc1NC(=O)C(=O)NC1CCCC1
10,773,Cc1cc(C2CCCN2C(=O)c2c(F)cccc2Cl)no1 (stereo not given)
11,772,COc1cccc(N2CCN(C(=O)c3[nH]c(C)c(S(=O)(=O)N4CCOCC4)c3C)CC2)c1
12,848,CC(=O)N1c2ccc(S(=O)(=O)N3CCCC3)cc2CC1C(=O)NCCc1ccccc1C (stereo not given)
13,868,Cn1nccc1-c1cccc(-c2noc(CNS(=O)(=O)c3ccc(F)cc3)n2)c1
14,601,CCOC(=O)c1cccc(NC(=O)N2CCc3nc[nH]c3C2)c1
15,790,CC(Oc1ccccc1Cl)C(=O)NCCn1cnc(-c2ccccc2)cc1=O (stereo not given)
16,640,CC1CS(=O)(=O)N(c2ccc(S(=O)(=O)N3CCC(C(N)=O)CC3)cc2)C1=O (stereo not given)
17,618,CCC1CCCCN1C(=O)CN1CCn2c1nc(C)c(C)c2=O (stereo not given)
18,695,COCCc1noc(-c2ccc(=O)n(CC(=O)Nc3ccccc3)c2)n1
19,1060,COc1cccc(-c2noc(CN3C(=O)C(C)Oc4ccccc43)n2)c1 (stereo not given)
20,801,O=S(=O)(Nc1ccc(F)cc1)c1cccnc1N1CCOCC1
21,736,O=C(Nc1cccc(Cl)c1)N1CCC(N2CCN(Cc3ccccc3)C(=O)C2=O)CC1
22,676,Cc1nn2c(CNC(=O)C(C)Oc3cccc(Cl)c3)c(C)nc2s1 (stereo not given)
23,923,Cn1c(C(=O)Nc2ccc(F)cc2F)cc2c(=O)oc3ccccc3c21
24,728,CCCNC(=O)C1CCN(c2ccc(SCC(=O)Nc3cccc(C(C)C)c3)nn2)CC1
25,682,COc1cc(NC(=O)CSc2ccc(N3CCOCC3)nn2)cc(OC)c1

row,RP-LC retention time [s],Compound
1,599,Cc1cccc(CN2CCC(CNC(=O)C3CCCN(c4cc(=O)n(C)c(=O)n4C)C3)CC2)c1 (stereo not given)
2,792,CCCOc1ccc(CNC(=O)C2CCc3nc(N4CCOCC4)ncc3C2)cc1 (stereo not given)
3,1020,Cc1ccc(NC(=O)Nc2nccn(-c3cccc(F)c3)c2=O)cc1C
4,722,O=C(c1nccc2ccccc12)N1CCC(OCC2CC2)C1 (stereo not given)
5,866,COc1ccc(N2CC(c3nc(-c4ccc(C)cc4)no3)CC2=O)cc1OC (stereo not given)
6,858,CC(C)CN1CCn2cc(S(=O)(=O)Nc3ccc(Cl)cc3F)cc2C1=O
7,897,Cc1ccc(CNC(=O)C2(C)CCCN(C(=O)Nc3ccc(C)c(C)c3)C2)cc1 (stereo not given)
8,856,Cc1cc(F)ccc1N1C(=O)CN(S(C)(=O)=O)CC1(C)C(=O)NCc1ccc(Cl)cc1 (stereo not given)
9,646,O=C(Cn1c(=O)nc(-c2ccccc2)c2cc(Cl)ccc21)N1CCN(c2ccccn2)CC1
10,616,CN1CCN(S(=O)(=O)c2ccc(C3CCCCC3)cc2)CC1
11,708,Fc1ccc(Cc2nc(-c3ccnc(N4CCCC4)c3)no2)cc1
12,556,Cc1cccc2nnc(N3CCN(C(=O)c4ccc5c(c4)OCO5)CC3)n12
13,913,COc1ccc(Cl)cc1S(=O)(=O)N1CCC(C(=O)Nc2ccccc2)CC1
14,620,O=C1NCCCCCN(C(=O)c2cnccn2)[C@H]2CCC[C@@H]12
15,1080,CCCCS(=O)(=O)N1CCC(F)(c2nc(-c3ccccc3)no2)CC1
16,619,O=C(NCC1CC1)c1cccc(N2CCNC(c3ccccc3)C2)n1 (stereo not given)
17,663,CC(NC(=O)CC1CCCCC1)C(=O)Nc1nc2ccccc2[nH]1 (stereo not given)
18,590,O=C(c1cc(-c2ccncc2)n[nH]1)N1CCN(C(=O)c2ccc(Br)o2)CC1
19,927,O=C(Nc1cc(-c2ccsc2)no1)c1ccc(Br)o1
20,933,CCOC(=O)c1c(C)[nH]c(CCC(=O)Nc2cc(F)ccc2F)c1C
21,586,COc1cccc(-c2[nH]ncc2CN2CCC3(CCC3O)CC2)c1 (stereo not given)
22,1040,COC(=O)C1CCN(S(=O)(=O)c2ccc(Cl)c(-c3nnc(-c4ccccc4)o3)c2)CC1
23,725,Cc1ccc(S(=O)(=O)N2CCCC(Cn3c(C)nc4cccnc43)C2)cc1F (stereo not given)
24,602,Cc1nc(Nc2ccc(Cl)cn2)sc1C(=O)NCCN(C)C
